Tested on: Homo sapiens
Experiment: In vivo inhibition of IDO1 in malignant glioma patient assessed as reduction in intratumoral kynurenine levels relative to control
Format: functional

O=C1CC(c2c[nH]c3ccc(F)cc23)C(=O)N1 (stereo unspecified) [PF-06840003]
inhibition (INH): >80%
